Six compounds from patent US5707976A, “Substituted propane-2-OL derivatives” (Richter Gedeon Vegyeszeti Gyar Rt., priority 1993, dated 1998) can be followed below.

The structures appear in SMILES notation. Converted amounts (≈) assume the structure as drawn. Read-outs that look alike come from different tables or passages of the source.

The test system of one assay is Candida albicans. Briefly: Densitometric measurement of the propagation of yeast fungi (BIOSCREEN C), minimal inhibitory concentration. Type of assay: cell-based. The following applies: for MIC: Candida albicans. The procedure: Densitometric measurement of the propagation of yeast fungi
A microbiological analyzer called BIOSCREEN C (LAB-SYSTEMS, Helsinki, Finland) was used to the measurements. From the test compounds first a stock solution of a concentration of 50 mg/ml, then in 15 steps a bisecting dilution series was prepared with dimethyl sulfoxide. From every dilution step 10 μl each was introduced into the cells of the analysator. Then 390 μl of an aqueous nutrient solution was piperred into the cells. In the mixtures obtained the cells of the yeasts, e.g. Candida albicans, cans, were suspended in such an amount that the optical density of the suspension obtained be about 0.1. Young cultures, shaken at 30° C. for about 12 hours, were used in the preparation of the suspensions. The composition of the aqueous nutrient solution was as follows: 1% by weight of glucose, 0.5% by weight of yeast extract (a product of the firm OXOID Ltd, Great Britain, under the catalogue No. L21) and 0.5% by weight of nutrient broth (a product of the firm OXOID Ltd, Great Britain, under the catalogue No. CM 1/2). The concentration of the compounds to be tested in the cells corresponded to 1250, 625, 312, 156, 78, 39, 19, 9, 4, 2, 1, 0.6, 0.3, 0.15 and 0.07 μg/ml, resp. The densitometric measurement of the cultures was carried out during an incubation at 37° C. for 30 hours. The change in the turbidity of the culture, which can be followed through optical measurement, is proportional to the propagation of the yeast fungi.
As the minimal inhibitory concentration (MIC) of this test that minimal concentration of the tested compound was determined which was able to prevent totally the propagation of the fungus.

In assay [1] the test system is other Candida species and other pathogenic fungi. As to the kind of experiment: in vitro tests, full inhibition of other Candida species and other pathogenic fungi. To be noted: read-out: dose of full inhibition. Type of assay: cell-based. The text has this: Mainly this resistant species causes the disease called "candidiasis" which is quite wide-spread and very difficult to influence.

Where [2] appears, read: 30 h, read-out: MIC values of the individual tests.

Take `C[Si](C)(C)OC(Cn1ccnc1)(Cn1cncn1)c1ccc(F)cc1F` (stereo not shown) [Example 3, 1-(Imidazol-1-yl)-2-(2,4-difluorophenyl)-3-(1,2,4-triazol-1-yl)-2-(trimethylsilyloxy) propane]: the MIC with Candida albicans (setting [2]) was 150 µg/mL (≈ 397 µM).
Still for that read-out and setting: the result for `C[Si](C)(C)OC(CCl)(Cn1ccnc1)c1ccc(F)cc1F` (stereo not shown) [Example 8, 1-Chloro-2-(2,4-difluorophenyl)-3-(imidazol-1-yl)-2-(trimethylsilyloxy)propane] reads 19 µg/mL (≈ 55.1 µM); that for `CC(Cn1cncn1)(O[Si](C)(C)C)c1ccc(F)cc1F` (stereo not shown) [Example 6, 2-(2,4-Difluorophenyl)-3-(1,2,4-triazol-1-yl)-2-(trimethylsilyloxy)propane], 150 µg/mL (≈ 482 µM).
On to `C[Si](C)(C)OC(Cn1cncn1)(Cn1cncn1)c1ccc(F)cc1F` [Example 1, 2-(2,4-Difluorophenyl)-1,3-bis(1,2,4-triazol-1-yl)-2-(trimethylsilyloxy)propane], for which, in the assay on Candida albicans (setting [2]), the MIC came out at 150 µg/mL (≈ 396 µM). The “effectiveness against Candida albicans compared with the active ingredient of fluconazole” value with Candida albicans (factor missing in the printed text) is on record as “times more effective”.
For the compound `OC(Cn1cncn1)(Cn1cncn1)c1ccc(F)cc1F` [fluconazole, 2-(2,4-difluorophenyl)-1,3-bis(1,2,4-triazol-1-yl)propane-2-ol, reference compound], the MIC in assay [1] is 0.1 to 10 µg/mL (≈ 0.327 to 32.7 µM); in the assay with Candida albicans (setting [2]), 2500 µg/mL (≈ 8160 µM); in the assay with Candida albicans (in vitro, read-out: dose of full inhibition), 2500 µg/mL (≈ 8160 µM). For the same compound, in the assay with Candida albicans, the “effect against Candida albicans (in words)” value is listed as “relatively weak effect”.
As for `C[Si](C)(C)OC(CCl)(Cn1cncn1)c1ccc(F)cc1F` (stereo not shown) [Example 5, 1-Chloro-2-(2,4-difluorophenyl)-3-(1,2,4-triazol-1-yl)-2-(trimethylsilyloxy) propane], in the assay with Candida albicans (setting [2]), the MIC stood at 9 µg/mL (≈ 26 µM).
